Laboratory results reported in patent publication US11001615B2, “Mutated tau protein fragment and use thereof” (ADEL INC., priority 2016, dated 2021).
Entries after “also recorded” stand apart in the source; their conditions may differ. Ends that are not written are not given here.

Assays:
Type in all cases: in vivo
Tau-P301L dementia mice [1] = assay: Nest building test; conditions: Tau-P301L about 50% decrease versus normal mice
Description: (§1) JNPL3 mice expressing Tau-P301L mutant gene were purchased from Taconic, and back-crossed with C57bl/6 mice for five generations in the experimental animal room of the Asan Institute for Life Sciences. Then, the mice were raised under a specific pathogen free (SPE) condition. For active immunization, the mice were administered, for six months starting from three months after birth at intervals of two weeks, two weeks, four weeks, four weeks, five weeks, four weeks, and one week in this order, the four modified tau protein fragments prepared in Preparation Example 1 together with keyhole limpet hemocyanin (KLH) as a carrier and an aluminum adjuvant. At this time, administration was carried out through intraperitoneal injection (IP injection). The dementia mice which were actively immunized by administration of the K280-ac fragment were designated as Tau-P301L-K280-ac.
Behavioral experiments were conducted to identify changes in motor ability and cognitive function of the Tau-P301L dementia mice produced in Preparation Example 2. A nest building test which can identify a multimodal brain function of the mice was performed.
Specifically, two-thirds of the litter in a cage where the mice are raised was removed and four layers of sterile cotton (5 cm×5 cm) were placed in the cage. One mouse was allowed to enter one cage. The next morning, a degree of completion of the nest was analyzed.

Tau-P301L dementia mice [2] = assay: Fear conditioning experiment; conditions: actively immunized Tau-P301L dementia mice; normal mice about 150, Tau-P301L 100 or shorter
Description: as §1
A fear conditioning experiment was performed on the mice raised in Preparation Example 2. […]
On the day before the fear conditioning experiment, the mice were allowed to become accustomed to a training situation by being placed in the training situation for 10 minutes. […] All tests were recorded on Limelight (Actimetrics) and a computer.
On the next day, the mice were placed again in the experimental cage for 10 minutes and a baseline freezing time was measured while the beep sound was heard. […]

Tau-P301L dementia mice [3] = assay: Western blotting of cerebral cortex fractions (tau aggregation-mitigating effect); conditions: cerebral cortex fractions (soluble or insoluble)
Description: as §1
In order to identify a tau aggregation-mitigating effect following administration of the K280-ac fragment, western blotting was performed with the cerebral cortices of the Tau-P301L-K280-ac dementia mice, the P301L-K280-ac dementia mice, and the normal mice produced in Preparation Example 2.

Tau-P301L dementia mice [4] = assay: qPCR of brain tissues for inflammation-related genes; conditions: brain tissue, compared with non-immunized dementia mice
Description: as §1
In order to identify an inflammation-improving effect following administration of the K280-ac fragment, brain tissues of the Tau-P301L-K280-ac dementia mice, the P301L-K280-ac dementia mice, and the normal mice produced in Preparation Example 2 were extracted, and qPCR was performed for inflammation-related genes.

Tau-P301L dementia mice [5] = assay: Memory tests and motor ability tests after active immunization (overall comparison); conditions: comparison of the four modified tau protein fragments
Excerpt: Tau-P301L dementia mice were actively immunized by administration of the four modified tau protein fragments prepared in Preparation Example 1. Then, the Tau-P301L dementia mice were subjected to memory tests such as fear conditioning test and Morris water maze test, motor ability tests such as grip strength test and vertical test, and the like, so that improved effects obtained by the respective modified tau protein fragments were compared.
as §1

Tau-P301L dementia mice [6] = assay: Antibody distribution in brain tissue (immunohistochemical staining and western blotting for mouse immunoglobulin-G); conditions: after cardiac perfusion
Description: as §1
In order to identify antibodies in brain tissues of the Tau-P301L-K280-ac dementia mice, the P301L-K280-ac dementia mice, and the normal mice produced in Preparation Example 2, cardiac perfusion was performed with cold physiological saline. Then, the brain tissues were extracted, and immunohistochemical staining and western blotting were performed for mouse immunoglobulin-G.

Tau-P301L dementia mice [7] = assay: Y-maze experiment; conditions: Tau-P301L 50% decrease in measurement time versus normal mice
Description: as §1
In addition, a Y-maze experiment was performed to identify restoration of cognitive function. Specifically, A, B, and C zones were set in a Y-shaped box, and the mice were allowed to freely move for 5 minutes in a state where the B zone was blocked.

Tau-P301L dementia mice [8] = assay: ELISA using plasma: antibody production against modified tau protein fragments; conditions: ELISA using plasma after final administration; fragment with KLH and aluminum adjuvant, IP
Description: as §1
In order to identify whether antibodies against the four modified tau protein fragments prepared in Preparation Example 1 were produced, the respective modified tau protein fragments or the full-length tau protein was finally administered, and then ELISA was performed using plasma.

Tau-P301L dementia mice [9] = assay: Novel object recognition experiment; conditions: Tau-P301L 50% decrease versus normal mice
Description: as §1
In addition, a memory experiment was performed with novel object recognition. […] Two identical objects were placed in the white box, and then the time spent staying around each object was measured while allowing the mice to make exploration for 5 minutes. 4 hours later, one of the objects installed was replaced with another model, and movement of the mice and the time spent staying around the object were measured for 5 minutes.

Tau-P301L dementia mice [10] = assay: Western blotting of brain tissues for tau proteins (tauopathy-alleviating effect); conditions: brain tissue
Description: as §1
In order to identify a tauopathy-alleviating effect following administration of the K280-ac fragment, brain tissues of the Tau-P301L-K280-ac dementia mice, the P301L-K280-ac dementia mice, and the normal mice produced in Preparation Example 2 were extracted, and western blotting and immunohistochemical staining were performed.

## Val-Gln-Ile-Ile-Asn-Lys-Lys-Leu-Asp-Leu-Ser-Asn (VQIINK(Ac)KLDLSN) [K280-ac]
Tau-P301L dementia mice [1]
  building score: restored to a level which is similar to that in the normal mice
Tau-P301L dementia mice [2]
  freezing time: about 150 seconds
Tau-P301L dementia mice [3]
  acetylated tau proteins: decreased
  entire tau protein: decreased
  phosphorylated tau proteins: decreased
Tau-P301L dementia mice [4]
  IFN-γ gene: decrease
  IL-4 gene: decrease
  IL-12 gene: increase
  IL-22 gene: decrease
Tau-P301L dementia mice [5]
  improved effect in memory and motor ability tests: improved effect at a level similar to that in normal mice; also recorded: restores a motor ability and a cognitive function
Tau-P301L dementia mice [6]
  antibodies in brain tissues: antibodies are present
Tau-P301L dementia mice [7]
  cognitive function in the Y-maze: restored
Tau-P301L dementia mice [8]
  antibodies against the fragment produced: well produced
Tau-P301L dementia mice [9]
  time spent staying around the novel object: increased to a level which corresponds to that in the normal mice
Tau-P301L dementia mice [10]
  acetylated tau proteins: decrease
  phosphorylated tau proteins: decrease
Tau-P301L dementia mice [10]; Tau-P301L 2-fold increase versus normal mice
  tau proteins in which lysine, the 280th amino acid, is acetylated: decreased level of tau proteins which corresponds to that in the normal mice
